Assay results as given in PMC5175396, “Cytotoxicity of Plumbagin, Rapanone and 12 other naturally occurring Quinones from Kenyan Flora towards human carcinoma cells” (BMC Pharmacology & Toxicology, 2016).
Like-named read-outs stand apart in the source and are kept apart here.

What was measured:
[1] = tested on: A549 human non-small cell lung cancer (NSCLC) cell line; test: Neutral red (NR) uptake cytotoxicity assay, A549; format: cell-based; settings: for IC50: neutral red assay, 72 h incubation; for selectivity index A549: IC50 in CRL2120 normal fibroblasts divided by IC50 in A549
From the text: (§1) Six human cancer cell lines and one normal cell line were used in this study. They included A549 human non-small cell lung cancer (NSCLC) cell line, obtained from the Institute for Fermentation, Osaka (IFO, Japan) and provided by Prof. Dr. Tansu Koparal (Anadolu University, Eskisehir, Turkey), SPC212 human mesothelioma cell line obtained from American Type Culture Collection (ATCC) and provided by Dr. Asuman Demiroğlu Zergeroğlu (Gebze Technical University, Kocaeli, Turkey), DLD-1 colorectal adenocarcinoma cell lines obtained from ATCC (CCL-221), Caco2 colorectal adenocarcinoma cells (ATCC, HTB-37) obtained from the ŞAP Institute of Turkey (Ankara), HepG2 hepatocarcinoma cells (ATCC, HB-8065) and MCF-7 breast adenocarcinoma cells (ATCC, HTB-22) were provided by Prof. Dr. Tansu Koparal (Anadolu University, Eskisehir, Turkey). The normal CRL2120 human skin fibroblasts were obtained from ATCC [CCD1094Sk (ATCC, CRL-2120)]. The cells were maintained as a monolayer in DMEM medium (Sigma-aldrich, Munich, Germany) medium supplemented with 10% fetal calf serum and 1% penicillin (100 U/mL)-streptomycin (100 μg/mL) in a humidified 5% CO2 atmosphere at 37 °C.
(§2) The cytotoxicity of samples was performed by NR uptake assay as previously described. This method is based on the ability of viable cells to incorporate and bind the supravital dye NR in the lysosomes. […] Briefly, cells were detached by treatment with 0.25% trypsin/EDTA (Invitrogen) and an aliquot of 1 × 10^4 cells was placed in each well of a 96-well cell culture plate (Thermo Scientific, Germany) in a total volume of 200 μL. The cells were allowed to attach overnight and subsequently treated with different concentrations of the 14 compounds. Each of the studied samples was immediately added in varying concentrations in additional 100 μL of culture medium to obtain a total volume of 200 μL/well. After 72 h incubation in humidified 5% CO2 atmosphere at 37 °C, the medium was removed and 200 μL fresh medium containing 50 μg/mL NR was added to each well and incubation continued for an additional 3 h at 37 °C in 5% CO2 atmosphere. The dye medium was then removed and each well was then washed rapidly with 200 μL phosphate buffer saline (PBS) followed by addition of 200 μL of acetic acid-water-ethanol in water (1:49:50). The plates were kept for 15 min at room temperature to extract the dye and then shaken for a few minutes on a GFL 3012 shaker (Gesellschaft für Labortechnik mbH, Burgwedel, Germany). Absorbance was measured on ELx 808 Ultra Microplate Reader (Biotek) equipped with a 540 nm filter. Each assay was done at least three times, with three replicates each. The viability was evaluated based on a comparison with untreated cells. The IC50 values represent the sample’s concentrations required to inhibit 50% of cell proliferation and were calculated from a calibration curve by linear regression using Microsoft Excel.

[2] = tested on: SPC212 human mesothelioma cell line; test: Neutral red (NR) uptake cytotoxicity assay, SPC212; format: cell-based; settings: for IC50: neutral red assay, 72 h incubation, read-out: IC50 SPC212; for selectivity index SPC212: IC50 in CRL2120 normal fibroblasts divided by IC50 in SPC212
From the text: as §1
as §2, with “lysosomes. The procedure is cheaper and more sensitive than other cytotoxicity tests.” for “lysosomes.”

[3] = tested on: DLD-1 colorectal adenocarcinoma cell lines; test: Neutral red (NR) uptake cytotoxicity assay, DLD-1; format: cell-based, human; settings: for IC50: Homo sapiens, DLD-1, neutral red assay, 72 h incubation, read-out: IC50 DLD-1; for selectivity index DLD-1: IC50 in CRL2120 normal fibroblasts divided by IC50 in DLD-1
From the text: as §1
as §2, with “lysosomes. The procedure is cheaper and more sensitive than other cytotoxicity tests.” for “lysosomes.”

[4] = tested on: Caco2 colorectal adenocarcinoma cells; test: Neutral red (NR) uptake cytotoxicity assay, Caco-2; format: cell-based, human; settings: Homo sapiens, Caco-2; neutral red assay, 72 h incubation
From the text: as §1
as §2, with “lysosomes. The procedure is cheaper and more sensitive than other cytotoxicity tests.” for “lysosomes.”

[5] = tested on: MCF-7 breast adenocarcinoma cells; test: Neutral red (NR) uptake cytotoxicity assay, MCF-7; format: cell-based, human; settings: for IC50: neutral red assay, 72 h incubation, read-out: IC50 MCF-7; for selectivity index MCF-7: IC50 in CRL2120 normal fibroblasts divided by IC50 in MCF-7
From the text: as §1
as §2, with “lysosomes. The procedure is cheaper and more sensitive than other cytotoxicity tests.” for “lysosomes.”

[6] = tested on: HepG2 hepatocarcinoma cells; test: Neutral red (NR) uptake cytotoxicity assay, HepG2; format: cell-based, human; settings: for IC50: Homo sapiens, HepG2, neutral red assay, 72 h incubation, read-out: IC50 HepG2; for selectivity index HepG2: IC50 in CRL2120 normal fibroblasts divided by IC50 in HepG2
From the text: as §1
as §2, with “lysosomes. The procedure is cheaper and more sensitive than other cytotoxicity tests.” for “lysosomes.”

[7] = tested on: normal CRL2120 human skin fibroblasts; test: Neutral red (NR) uptake cytotoxicity assay, normal CRL2120 fibroblasts; format: cell-based; settings: Skin fibroblast, 72 h incubation
From the text: as §1
as §2, with “lysosomes. The procedure is cheaper and more sensitive than other cytotoxicity tests.” for “lysosomes.”

[8] = tested on: six tested cancer cell lines (A549, SPC212, DLD-1, Caco-2, MCF-7, HepG2); test: Neutral red uptake assay, statements over the six tested cancer cell lines; format: cell-based, human; settings: for tested cancer cell lines in which recordable IC50 values were obtained: out of six cancer cell lines; for IC50: Homo sapiens, bound valid for all six cancer cell lines, neutral red assay; for selectivity indexes (CRL2120 vs carcinoma cells), lower bound over the cancer cell lines: IC50 CRL2120 / IC50 cancer cell line
From the text: as §1
as §2, with “lysosomes. The procedure is cheaper and more sensitive than other cytotoxicity tests.” for “lysosomes.”

[9] = Neutral red (NR) uptake cytotoxicity assay, Caco-2; format: cell-based, human; settings: human; IC50 in CRL2120 normal fibroblasts divided by IC50 in Caco-2; read-out: selectivity index Caco-2 (converted)
From the text: as §1
as §2, with “lysosomes. The procedure is cheaper and more sensitive than other cytotoxicity tests.” for “lysosomes.”

Row | SMILES | tested cancer cell lines in which recordable IC50 values were obtained [8] | IC50 [8] [µM] | IC50 ([1]; Homo sapiens, A549, 72 h) [µM] | IC50 ([2]; Homo sapiens, 72 h) [µM] | IC50 [3] [µM] | IC50 [4] [µM] | IC50 ([5]; Homo sapiens, MCF7, 72 h) [µM] | IC50 [6] [µM] | IC50 [7] [µM] | selectivity index A549 [1] | selectivity index SPC212 [2] | IC50 [2] [µM] | selectivity index DLD-1 [3] | selectivity ratio at 72 h [9] | selectivity index MCF-7 [5] | selectivity index HepG2 [6] | IC50 [5] [µM] | selectivity indexes (CRL2120 vs carcinoma cells), lower bound over the cancer cell lines [8] | IC50 [1] [µM]
1 | CCCC1=C(O)C(=O)C=C(O)C1=O [Compound 6, 2,5-dihydroxy-3-propyl-2,5-cyclohexadiene-1,4-dione] | 1/6 | – | > 222 | > 222 | > 222 | > 222 | 162 ± 11.4 | > 222 | > 222 | – | – | – | – | – | – | – | – | – | –
2 | CCC1=C(O)C(=O)C=C(O)C1=O [Compound 5, 2,5-dihydroxy-3-ethyl-2,5-cyclohexadiene-1,4-dione] | – | > 120 | > 238 | > 238 | > 238 | > 238 | > 238 | > 238 | 95.5 ± 5.64 | – | – | – | – | – | – | – | – | – | –
3 | Cc1cc(O)c2c(c1)C(=O)c1cc(O)cc(O)c1C2=O [Compound 2, emodin] | – | < 100 | 99.3 | 99.3 ± 8.46 | 77.3 ± 8.77 | 73.6 ± 3.52 | 37.6 ± 2.59 | 71.7 ± 4.52 | > 148 | > 2.23 | > 1.49 | – | > 1.92 | > 2.01 | > 3.94 | > 2.07 | – | above 1.49 | 66.3 ± 6.19
4 | COC(=O)c1c(O)cc2c(c1C)C(=O)c1c(O)cc(O)cc1C2=O [Compound 3, 3,6,8-trihydroxy-1-methylanthraquinone-2-carboxylic acid methyl ester] | – | > 120 | > 122 | > 122 | > 122 | > 122 | > 122 | > 122 | > 122 | – | – | – | – | – | – | – | – | – | –
5 | Cc1cc(O)c2c(c1)C(=O)c1cccc(O)c1C2=O [Compound 1, chrysophanol] | 2/6 | – | 52.2 ± 5.51 | 146 ± 10.6 | > 157 | > 157 | > 157 | > 157 | > 157 | > 3.01 | > 1.08 | – | – | – | – | – | – | – | –

Now from value to compound, other results behind:

Row | tested cancer cell lines in which recordable IC50 values were obtained [8] | IC50 [8] [µM] | SMILES | IC50 ([1]; Homo sapiens, A549, 72 h) [µM] | IC50 ([2]; Homo sapiens, 72 h) [µM] | IC50 [3] [µM] | IC50 [4] [µM] | IC50 ([5]; Homo sapiens, MCF7, 72 h) [µM] | IC50 [6] [µM] | IC50 [7] [µM] | selectivity index A549 [1] | selectivity index SPC212 [2] | IC50 [2] [µM] | selectivity index DLD-1 [3] | selectivity ratio at 72 h [9] | selectivity index MCF-7 [5] | selectivity index HepG2 [6] | IC50 [5] [µM] | selectivity indexes (CRL2120 vs carcinoma cells), lower bound over the cancer cell lines [8] | IC50 [1] [µM]
6 | – | < 100 | CCCCCCCCCCCCCCCC1=C(O)C(=O)C=C(O)C1=O [Compound 10, 2,5-dihydroxy-3-pentadecyl-2,5-cyclohexadiene-1,4-dione] | 43.3 ± 2.72 | < 10 | 51.2 ± 5.54 | 27.8 ± 2.03 | 30.4 ± 8.64 | 48.4 ± 3.73 | > 124 | > 2.87 | > 14.81 | 8.39 ± 0.48 | > 2.43 | > 4.47 | > 4.09 | > 2.57 | – | – | –
7 | 5/6 | – | CCCCC1=C(O)C(=O)C=C(O)C1=O [Compound 7, 2,5-dihydroxy-3-butyl-2,5-cyclohexadiene-1,4-dione] | 68.6 ± 7.55 | 87.9 ± 5.66 | > 204 | 89.7 ± 8.8 | 64.6 ± 13.4 | 176 ± 28.5 | > 204 | > 2.97 | > 2.32 | – | – | > 2.27 | > 3.16 | > 1.16 | – | – | –
8 | – | < 100 | CCCC/C=C\CCCCCCCCCCCCCC1=C(OC(C)=O)C(OC(C)=O)C(C)=C(OC(C)=O)C1OC(C)=O (stereo not drawn) [Compound 13, 1,2,4,5-tetraacetate-3-methyl-6-(14-nonadecenyl)-cyclohexadi-2,5-diene] | 47.5 ± 3.56 | 36.2 ± 3.08 | 25.1 ± 1.5 | 24.6 ± 2.71 | < 10 | 18.2 ± 1.46 | 93.2 ± 1.17 | 1.96 | 2.57 | – | 3.72 | 3.78 | 10.08 | 5.13 | 9.25 ± 0.16 | > 1.96 | –
9 | – | < 100 | CCCCCCCCCCCC1=C(O)C(=O)C=C(OC)C1=O [Compound 11, 2-hydroxy-5-methoxy-3-undecyl-1,4-benzoquinone] | 50.3 ± 2.6 | 38.3 ± 3.23 | 45.4 ± 4.89 | 38.9 ± 2.35 | 22.6 | 61.3 ± 5.53 | 44.2 ± 0.2 | 0.88 | 1.15 | – | 0.97 | 1.14 | 1.96 | 0.72 | 22.6 ± 1.57 | – | –
10 | – | > 120 | CCCCC=CCCCCCCCCCCCCCC1=C(OC)C(=O)C=C(OC)C1=O [Compound 12, 2,5 dimethoxy-6-(14-nonadecenyl)-1,4-benzoquinone] | > 129 | > 129 | > 129 | > 129 | > 129 | > 129 | > 129 | – | – | – | – | – | – | – | – | – | –
11 | 4/6 | – | COC1=CC(=O)C(O)=C(CCCCCCCC=CCCCCCCCC2=C(O)C(=O)C(C)=C(O)C2=O)C1=O [Compound 14, ardisiaquinone B] | 21.7 ± 1.5 | 3.14 ± 0.78 | 114 ± 3.68 | > 123 | > 123 | 115 ± 4.29 | 71.3 ± 5.23 | 3.29 | 22.72 | – | 0.62 | – | – | 0.62 | – | – | –
